{
  "source": "patent US20250319162A1",
  "about": "“METHODS AND MATERIALS FOR TREATING OBESITY” (Regents of the University of California, priority 2024, published 2025)",
  "key": {"immortalized adipocytes": {"tested_on": "immortalized adipocytes", "assay": "In vitro lipolysis (FFA and glycerol release) in immortalized adipocytes", "assay_type": "cell-based, mice", "experimental": "Primary preadipocytes from Rala^f/f mice were immortalized by retroviral transduction of pBabe-zeo-LT-ST (SV40) and selection by Zeocin^75. Single-cell clones were selected and tested for differentiation capacity. […] To generate Rala KO cells, immortalized Rala^f/f (WT) preadipocytes were transduced with lentiviral Cre with 8 μg/mL Polybrene for 12 hours, then cultured in DMEM/F12-FBS medium. Cre recombinase efficiency was tested in preadipocytes and adipocytes. Once 95-100% confluency was reached (day 0), differentiation was induced as described above. On the day of the experiment, cells were starved in DMEM/F12 medium for 3 hours before treatments.\nFully differentiated primary adipocytes in a 24-well plate were serum-starved in lipolysis medium (2% BSA-phenol-red-free DMEM) for 3 hours. For insulin treatment, 100 nM insulin was added to cells for 30 minutes starting at 2.5 hours of starvation. After starvation, the medium was replaced with 0.5 mL fresh lipolysis medium with vehicle, 1 μM CL-316,243 (CL), 100 nM insulin or in combination. The medium was collected 1 hour after incubation at 37° C. Released FFAs and free glycerol levels were measured using 100 μL medium with a NEFA kit (WAKO) and Free Glycerol Reagent (Sigma) according to the manufacturer's protocol."}, "[1]": {"assay": "In vivo insulin-suppressed lipolysis", "conditions": "single injection of insulin, fasted CD-fed control and Rala AKO mice", "experimental": "CD-fed mice were used for in vivo lipolysis. For CL-induced lipolysis, ad libitum-fed mice were i.p. injected with PBS or CL (1 mg/kg) for 60 minutes. Circulating FFAs and free glycerol levels were measured using 2 μL plasma with a NEFA kit (WAKO) and Free Glycerol Reagent (Sigma), respectively. For insulin-suppressed lipolysis, overnight-fasted mice were i.p. injected with insulin (0.5 U/kg) for 60 minutes. Circulating FFAs and free glycerol levels were measured at the indicated conditions."}, "[2]": {"tested_on": "primary differentiated adipocytes", "assay": "Seahorse oxygen consumption rate in differentiated primary adipocytes", "assay_type": "cell-based, mice", "conditions": "addition of etomoxir", "experimental": "The cellular oxygen consumption rate (OCR) was measured using an eXF96 Extracellular Flux Analyzer and analyzed by Agilent Seahorse Wave Software (Seahorse Bioscience). Before performing the assay, 2,500 primary preadipocytes were seeded and differentiated in XF96 microplates. Once fully differentiated, the adipocyte culture medium was changed to assay medium containing 25 mM glucose, 1 mM pyruvate and 2 mM L-glutamine, and 0.5 mM carnitine without phenol red or sodium bicarbonate for 3 hours. Before taking measurements, cells were incubated in a CO2-free incubator for 15 minutes. Basal rates of respiration were measured in assay medium and followed with sequential injections of oligomycin (2 μM), FCCP (0.5 μM) and rotenone with antimycin A (each 0.5 μM). Oxygen consumption values were normalized to total protein content."}, "[3]": {"assay": "RalA inhibitor treatment of mice: body weight, tissue weight, blood glucose", "assay_type": "in vivo", "description": "To test the effects of RalA inhibition in reducing body weight, tissue weight and blood glucose level in mice, mice were weighed before injecting with either RalA inhibitor, BQU57, or DMSO (vehicle). Post injection, mice were weighed every 2 days."}, "[4]": {"tested_on": "primary and immortalized adipocytes", "assay": "TMRM live-cell imaging of mitochondrial membrane potential in adipocytes", "assay_type": "cell-based, mice", "conditions": "adipocytes treated with 1 μM CL-316,243 for indicated times", "description": "FIGS. 10A-10J. […] FIG. 10A: Calculation of individual OCR in differentiated primary adipocytes (n=8 biological samples). P=0.0008, P=0.0175, P=0.0042. FIG. 10B: Representative immunoblot of RalA and β-Tubulin in immortalized preadipocytes and differentiated adipocytes. (n=3 biological samples). FIG. 10C: Quantification of mean TMRM fluorescence intensity in primary adipocytes and immortalized adipocytes (n=3 independent cells). P<0.0001, P<0.0001. FIG. 10D: Time course TMRM intensity quantification in primary and immortalized adipocytes (n=4 biological samples). Adipocytes were treated with 1 μM CL-316,243 (CL) for indicated times. P=0.0015, P=0.0044 (left panel). P<0.0001, P=0.0154, P=0.0095 (right panel). FIGS. 10E and 10F: Quantification of NEFA (FIG. 10E) and free glycerol (FIG. 10F) released into medium from immortalized adipocytes (n=3 biological samples). Cells were treated with 1 μM CL, 100 nM insulin, or in combination prior to medium collection. P=0.0301, P=0.0051 (FIG. 10F). FIGS. 10G and 10H: Plasma levels of NEFA (FIG. 10G) and free glycerol (FIG. 10H) in CD-fed Rala^f/f and Rala^AKO mice (n=6). P=0.0027, P=0.0173 (FIG. 10H). Mice were i.p. injected with CL or vehicle prior to blood sampling. FIGS. 10I and 10J: Plasma levels of NEFA (FIG. 10I) and free glycerol (FIG. 10J) in CD-fed Rala^f/f (n=4) and Rala^AKO (n=5) mice. […]"}},
  "note": "Entries after “also recorded” stand apart in the source; their conditions may differ.",
  "data": [
    {"compound": "insulin: insulin used at 100 nM in cells or injected i.p. (human insulin, Sigma)", "values": [
      {"measurement": "suppression of CL-induced FFA release", "setting": "immortalized adipocytes; 100 nM insulin with 1 μM CL, both WT and KO cells", "value": "approximately 50%"},
      {"measurement": "plasma FFA levels", "setting": "[1]", "value": "reduced FFA levels"}
    ]},
    {"compound": "CCOC(=O)[C@@]1(CCCCCCOc2ccc(Cl)cc2)CO1", "note": "[etomoxir]", "values": [
      {"measurement": "difference in maximal respiration (OCR) between KO and control adipocytes", "setting": "[2]", "value": "blunted"}
    ]},
    {"compound": "Cc1nn(C)c2c1C(c1ccc(C(F)(F)F)cc1)C(C#N)=C(N)O2", "note": "(centres unmarked) [BQU57]", "values": [
      {"measurement": "body weight", "setting": "[3]; mice injected with BQU57 vs DMSO vehicle, weighed every 2 days, 23 days of treatment", "value": "significant weight loss; also recorded: reduced body weight"},
      {"measurement": "blood glucose level", "setting": "[3]; mice, BQU57 vs vehicle group", "value": "significant reduction in the blood glucose level"},
      {"measurement": "subcutaneous WAT (sWAT) weight", "setting": "[3]; mice, post treatment with BQU57", "value": "marked reduction of subcutaneous WAT (sWAT) weight"}
    ]},
    {"compound": "C[C@H](Cc1ccc2c(c1)OC(C(=O)[O-])(C(=O)[O-])O2)NC[C@H](O)c1cccc(Cl)c1.[Na+].[Na+]", "note": "[CL-316,243]", "values": [
      {"measurement": "FFA and glycerol release", "setting": "immortalized adipocytes; 1 μM CL, KO and WT immortalized adipocytes", "value": "robustly stimulated FFA and glycerol release"},
      {"measurement": "TMRM signal (mitochondrial membrane potential)", "setting": "[4]", "value": "TMRM signal declined quickly"}
    ]}
  ]
}
